{"source": "patent US20230372348A1", "about": "“LIPID FORMULATIONS OF TRIAZOLOQUINAZOLINONE COMPOUNDS” (Gabather AB, priority 2020, published 2023)", "key": {"[1]": {"assay": "Single dose pharmacokinetic evaluation of formulations in male Sprague Dawley rats", "assay_type": "in vivo", "details": "plasma, iv, rat", "procedure": "Single dose pharmacokinetic evaluations of formulations F12-F22 were carried out using male Sprague Dawley rats using conditions as described in Table 1.\nAnimal ID's were labelled by pen marks on tail and body weight was recorded for calculation of test item volume before administration. Blood was collected capillary from vena saphena from the rats in EDTA coated collection tubes and centrifuged for five minutes at 2000G. Plasma was transferred to pre-labelled Eppendorf tubes and immediately stored in −20° C. The pharmacokinetic analysis was performed using PK Solutions 2.0™, Noncompartmental Pharmacokinetic Data Analysis software.\nCmax (nM) is the maximum concentration. AUC 0-24 (nM*h) is the area under the curve over 24 hours. Tmax (h) is the maximum time in hours. F % is bioavailability. Frel % is the relative bioavailability."}, "[2]": {"assay": "Single ascending dose (SAD) study, pharmacokinetics in healthy male subjects", "assay_type": "in vivo, human", "procedure": "Lipid formulations containing PHOSAL® 53 MCT delivered higher exposure in rat and dog when compared to other formulation (e.g., nanosuspension formulation and PEG formulations). […] Formulation 1H containing 70% PHOSAL® 53 MCT and 30% Labrasol® ALF was selected for manufacturing of soft gelatin capsules for clinical trials with a drug formulation fill weight of 500 mg and a total capsule weight is 696 mg. Two dose strength (0.1 mg/subject and 2 mg/subject) and placebo were produced according to GMP for clinical testing.\nThe clinical development programme in healthy volunteers started with a double-blind, randomised, placebo controlled single ascending dose (SAD) study in males. Seven dose cohorts received increasing oral doses of Compound (1a) or placebo, dose range 0.05-2 mg. Each cohort consisted of 5-6 subjects receiving Compound (1a) and 2 subjects receiving placebo, with the primary objective to evaluate safety and tolerability, the secondary objective being evaluation of pharmacokinetics (PK).\nA summary of PK results from the SAD study are shown below in Table 8."}, "[3]": {"test_system": "benzodiazepine site of the GABAA receptor complex", "details": "cited from earlier work"}}}
{"smiles": "Cc1ccc(-n2nc3c4cc(Cc5ccccc5)ccc4[nH]c(=O)n3c2=O)cc1", "note": "[Compound (1a), 9-benzyl-2-(4-methylphenyl)-2,6-dihydro[1,2,4]triazolo[4,3-c]quinazoline-3,5-dione]", "values": [{"measurement": "bioavailability", "setting": "[1]; intravenously 1 mg/kg (reference), read-out: F % (bioavailability)", "value": 100, "unit": "%"}, {"measurement": "AUC(0-t)", "setting": "[1]; intravenously 1 mg/kg, read-out: AUC 0-24", "value": 1.18, "unit": "µM·h"}, {"measurement": "dose proportionality of Cmax", "setting": "[2]; dose range 0.05 mg-2 mg", "value": "dose proportional"}, {"measurement": "dose proportionality of exposure", "setting": "[2]; dose range 0.05 to 2 mg, oral soft gelatin capsules, fasting healthy male volunteers", "value": "close to dose proportional"}, {"measurement": "selectivity", "setting": "[3]", "value": "selective for the GABAA receptor complex"}, {"measurement": "inhibition of 3H-Flumazenil binding", "setting": "[3]; rat membrane preparations", "value": "very potent inhibitor"}, {"measurement": "potency in displacing 3H-Flumazenil relative to diazepam", "setting": "[3]; rat membrane preparations, more potent than diazepam", "value": 10, "unit": "times"}]}
